In patent US9428519B2, “Acylated derivative of homoharringtonine, preparation method therefor, and application thereof” (HANGZHOU BENSHENG PHARMACEUTICAL CO., LTD., priority 2011, dated 2016):
Converted amounts (≈) assume the structure as drawn.

Columns and labels:
[1] = tested on: U87 MG (malignant glioma cell); assay: MTT growth inhibition of human solid tumor cells, 72 h; type: cell-based; conditions: Homo sapiens, U-87 MG
Experimental: (§1) Human solid tumor cell lines: Hep-2 (laryngeal carcinoma), A549 (human lung cancer), CaES-17 (esophageal cancer cell), PC-3 (prostate cancer), CNE (nasopharyngeal carcinoma cell), and SK-OV-3 (ovarian cancer cell), all of which are purchased from China Center For Type Culture Collection; RKO (human colon adenocarcinoma cell), MGC 803 (human gastric cancer cell), MG63 (osteosarcoma) and U87 MG (malignant glioma cell), all of which are purchased from Fuxiang Bio-tech Co. Ltd., Shanghai, China; PANC-1 (pancreatic cancer), Huh7 (human liver cancer cell), Becap37 (human breast cancer cell), and Hela (human cervical cancer cell), all of which are donated by Cancer Research Institute of Zhejiang University, China.
(§2) Obtaining 4000 well-growing human solid tumor cells and inoculating them into wells of a 96-well cell culture plate. The culture medium is DMEM High Glucose cell culture medium containing 10% fetal bovine serum. The plate is placed in a carbon dioxide cell incubator (5% CO2) at 37° C. and incubated for 24 hours. After adding the homoharringtonine derivatives of different concentration and mixing uniformly, the plate is placed in a carbon dioxide cell incubator (5% CO2) at 37° C. and incubated for 72 hours. Then the viable cell concentration is determined by the MTT method and the cell viability (%) after drug treatment is calculated. In this experiment, the cell viability of control group (not treated with any compound) is set as 100%.

[2] = tested on: CNE (nasopharyngeal carcinoma cell); assay: as above; type: cell-based; conditions: for IC50 / IC90: Homo sapiens, MTT
Experimental: as §1, §2

MG63 (osteosarcoma) = assay: as above; type: cell-based; conditions: Homo sapiens, MG-63, MTT
Experimental: as §1, §2

[3] = tested on: RKO (human colon adenocarcinoma cell); assay: as above; type: cell-based; conditions: Homo sapiens, MTT
Experimental: as §1, §2

[4] = tested on: PANC-1 (pancreatic cancer); assay: as above; type: cell-based; conditions: Homo sapiens, PANC-1, MTT
Experimental: as §1, §2

[5] = tested on: SK-OV-3 (ovarian cancer cell); assay: as above; type: cell-based; conditions: Homo sapiens, SK-OV-3, MTT
Experimental: as §1, §2

PC-3 (prostate cancer) = assay: as above; type: cell-based; conditions: Homo sapiens, MTT
Experimental: as §1, §2

[6] = tested on: CaES-17 (esophageal cancer cell); assay: as above; type: cell-based; conditions: Homo sapiens, CaEs17
Experimental: as §1, §2

[7] = tested on: Huh7 (human liver cancer cell); assay: as above; type: cell-based; conditions: Homo sapiens, Huh-7
Experimental: as §1, §2

[8] = tested on: Hela (human cervical cancer cell); assay: as above; type: cell-based; conditions: Homo sapiens, HeLa, MTT
Experimental: as §1, §2

A549 (human lung cancer) = assay: as above; type: cell-based; conditions: Homo sapiens, A549
Experimental: as §1, §2

[9] = tested on: Becap37 (human breast cancer cell); assay: as above; type: cell-based; conditions: Homo sapiens
Experimental: as §1, §2

[10] = tested on: Hep-2 (laryngeal carcinoma); assay: as above; type: cell-based; conditions: Homo sapiens, HEp-2
Experimental: as §1, §2

[11] = tested on: MGC 803 (human gastric cancer cell); assay: as above; type: cell-based; conditions: Homo sapiens, MGC-803
Experimental: as §1, §2

[12] = tested on: RPMI8226 (multiple myeloma); assay: MTT growth inhibition of multiple myeloma cells, 72 h; type: cell-based, human; conditions: Homo sapiens, RPMI-8226, MTT
Experimental: Multiple myeloma and lymphoma cell lines: RPMI8226 (multiple myeloma), purchased from Fuxiang Bio-tech Co. Ltd., Shanghai, China.
(§3) Obtaining 6000 well-growing leukemia cells and inoculating them into wells of a 96-well cell culture plate. The culture medium is the 1640 cell culture medium containing 10% fetal bovine serum. After adding the homoharringtonine derivatives of different concentrations and mixing uniformly, placing the plate in a carbon dioxide cell incubator (5% CO2) at 37° C. and incubated for 72 hours. Then the viable cell concentration is determined by the MTT method. In this experiment, the cell viability in control group (not treated with any compound) is set as 100%. On such basis, the cell viability (%) after treatment and the 50% inhibiting concentration of the compound for the leukemia cell growth at 72 hours (IC50 value of 72 hours) are calculated.

[13] = tested on: NB4 (acute promyelocytic leukemia, AML); assay: MTT growth inhibition of leukemia cells, 72 h; type: cell-based, human; conditions: Homo sapiens, MTT
Excerpt: (§4) Leukemia cell lines: leukemia cell lines: K562/adr (drug-resistant, chronic myeloid leukemia, CML), NB4 (acute promyelocytic leukemia, AML), Kasumi-1 (acute myeloid leukemia M2 type, AML-M2), Jurkat (acute lymphoblastic leukemia, ALL), all of which are donated by Cancer Research Institute of Zhejiang University, China; and H9 (acute lymphoblastic leukemia, ALL), which is purchased from China Center for Type Culture Collection (CCTCC).
(§5) Reagents: The standard sample of homoharringtonine (HHT) is purchased from Taihua Natural Plant Pharmaceutical Co., Ltd., Shaanxi, China, the homoharringtonine derivatives of the present invention.
as §3

[14] = tested on: Jurkat (acute lymphoblastic leukemia, ALL); assay: MTT growth inhibition of leukemia cells, 72 h; type: cell-based, human; conditions: Homo sapiens, Jurkat
Excerpt: as §4, §5, §3

[15] = tested on: Kasumi-1 (acute myeloid leukemia M2 type, AML-M2); assay: MTT growth inhibition of leukemia cells, 72 h; type: cell-based, human; conditions: Homo sapiens, Kasumi 1, MTT
Excerpt: as §4, §5, §3

[16] = tested on: K562/adr (drug-resistant, chronic myeloid leukemia, CML); assay: MTT growth inhibition of leukemia cells, 72 h; type: cell-based, human; conditions: Homo sapiens, K562/Adr, MTT
Excerpt: as §4, §5, §3

[17] = tested on: H9 (acute lymphoblastic leukemia, ALL); assay: MTT growth inhibition of leukemia cells, 72 h; type: cell-based, human; conditions: Homo sapiens, MTT
Excerpt: as §4, §5, §3

With `COC(=O)C[C@](O)(CCCC(C)(C)OC(=O)C1CCCC1)C(=O)O[C@@H]1C(OC)=C[C@]23CCCN2CCc2cc4c(cc2[C@H]13)OCO4` [BS-HH-077] the IC50 [1] was 0.035 µg/mL (≈ 0.0545 µM), the IC90 [1] was 0.16 µg/mL (≈ 0.249 µM) and the IC50 [2] was 0.012 µg/mL (≈ 0.0187 µM). The IC90 [2] was greater than 16 µg/mL, the “anti-CNE effect relative to homoharringtonine” value ([2]; vs HHT) was “more than 3 fold” and the IC50 (MG63 (osteosarcoma)) was 0.021 µg/mL (≈ 0.0327 µM). It also gave an IC90 (MG63 (osteosarcoma)) of 5.14 µg/mL (≈ 8.01 µM), an IC50 [3] of 0.006 µg/mL (≈ 0.00935 µM) and an IC90 [3] of 0.02 µg/mL (≈ 0.0312 µM). The IC50 [4] was 0.055 µg/mL (≈ 0.0857 µM), the IC90 [4] was greater than 16 µg/mL and the IC50 [5] was 0.034 µg/mL (≈ 0.053 µM). The IC90 [5] was greater than 16 µg/mL, the IC50 (PC-3 (prostate cancer)) was 0.039 µg/mL (≈ 0.0608 µM) and the IC90 (PC-3 (prostate cancer)) was greater than 16 µg/mL. It also gave an IC50 [6] of 0.031 µg/mL (≈ 0.0483 µM), an IC90 [6] of 16 µg/mL (≈ 24.9 µM) and an IC50 [7] of 0.016 µg/mL (≈ 0.0249 µM). For the same compound, the IC90 [7] was 0.36 µg/mL (≈ 0.561 µM), the IC50 [8] was 0.014 µg/mL (≈ 0.0218 µM) and the IC90 [8] was 16 µg/mL (≈ 24.9 µM). It also gave an IC50 (A549 (human lung cancer)) of 0.02 µg/mL (≈ 0.0312 µM), an IC90 (A549 (human lung cancer)) greater than 16 µg/mL and an IC50 [9] of 0.007 µg/mL (≈ 0.0109 µM). It also gave an IC90 [9] of 11.1 µg/mL (≈ 17.3 µM), an IC50 [10] of 0.007 µg/mL (≈ 0.0109 µM) and an IC90 [10] greater than 16 µg/mL. For the same compound, the IC50 [11] was 0.021 µg/mL (≈ 0.0327 µM), the IC90 [11] was 0.087 µg/mL (≈ 0.136 µM) and the IC50 [12] was 0.004 µg/mL (≈ 0.00623 µM). For the same compound, the IC90 [12] was 0.024 µg/mL (≈ 0.0374 µM), the IC50 [13] was 0.009 µg/mL (≈ 0.014 µM) and the IC90 [13] was 0.022 µg/mL (≈ 0.0343 µM). It also gave an IC50 [14] of 0.001 µg/mL (≈ 0.00156 µM), an IC90 [14] of 11.4 µg/mL (≈ 17.7 µM) and an IC50 [15] of 0.004 µg/mL (≈ 0.00623 µM). The IC90 [15] was 0.012 µg/mL (≈ 0.0187 µM), the IC50 [16] was 0.01 µg/mL (≈ 0.0156 µM) and the IC90 [16] was 0.05 µg/mL (≈ 0.0779 µM). The IC50 [17] was 0.01 µg/mL (≈ 0.0156 µM) and the IC90 [17] was 0.03 µg/mL (≈ 0.0467 µM).

`COC(=O)C[C@@](CCCC(C)(C)OC(=O)c1cccs1)(OC(=O)c1cccs1)C(=O)O[C@@H]1C(OC)=C[C@]23CCCN2CCc2cc4c(cc2[C@H]13)OCO4` [BS-HH-0572] showed an IC50 [1] of 0.23 µg/mL (≈ 0.3 µM), an IC90 [1] of 0.99 µg/mL (≈ 1.29 µM) and an IC50 [2] of 0.35 µg/mL (≈ 0.457 µM). It also gave an IC90 [2] of 14.3 µg/mL (≈ 18.6 µM), an IC50 (MG63 (osteosarcoma)) of 0.2 µg/mL (≈ 0.261 µM) and an IC90 (MG63 (osteosarcoma)) of 4.75 µg/mL (≈ 6.2 µM). The IC50 [3] was 0.12 µg/mL (≈ 0.157 µM), the IC90 [3] was 0.56 µg/mL (≈ 0.731 µM) and the IC50 [4] was 0.43 µg/mL (≈ 0.561 µM). For the same compound, the IC90 [4] was 12.6 µg/mL (≈ 16.4 µM), the IC50 [5] was 0.98 µg/mL (≈ 1.28 µM) and the IC90 [5] was greater than 16 µg/mL. For the same compound, the IC50 (PC-3 (prostate cancer)) was 1.84 µg/mL (≈ 2.4 µM), the IC90 (PC-3 (prostate cancer)) was greater than 16 µg/mL and the IC50 [6] was 0.74 µg/mL (≈ 0.966 µM). The IC90 [6] was 16 µg/mL (≈ 20.9 µM), the IC50 [7] was 0.17 µg/mL (≈ 0.222 µM) and the IC90 [7] was 1.7 µg/mL (≈ 2.22 µM). For the same compound, the IC50 [8] was 0.45 µg/mL (≈ 0.588 µM), the IC90 [8] was 11.5 µg/mL (≈ 15.1 µM) and the IC50 (A549 (human lung cancer)) was 0.48 µg/mL (≈ 0.627 µM). The IC90 (A549 (human lung cancer)) was greater than 16 µg/mL, the IC50 [9] was 0.2 µg/mL (≈ 0.261 µM) and the IC90 [9] was 9.75 µg/mL (≈ 12.7 µM). It also gave an IC50 [10] of 0.23 µg/mL (≈ 0.3 µM), an IC90 [10] greater than 16 µg/mL and an IC50 [11] of 0.24 µg/mL (≈ 0.313 µM). It also gave an IC90 [11] of 1.62 µg/mL (≈ 2.12 µM), an IC50 [12] of 0.155 µg/mL (≈ 0.202 µM) and an IC90 [12] of 1.13 µg/mL (≈ 1.48 µM). It also gave an IC50 [13] of 0.12 µg/mL (≈ 0.157 µM), an IC90 [13] of 0.4 µg/mL (≈ 0.522 µM) and an IC50 [14] of 0.11 µg/mL (≈ 0.144 µM). The IC90 [14] was 7.5 µg/mL (≈ 9.79 µM), the IC50 [15] was 0.065 µg/mL (≈ 0.0849 µM) and the IC90 [15] was 0.4 µg/mL (≈ 0.522 µM). For the same compound, the IC50 [16] was 0.32 µg/mL (≈ 0.418 µM), the IC90 [16] was 16 µg/mL (≈ 20.9 µM) and the IC50 [17] was 0.21 µg/mL (≈ 0.274 µM). The IC90 [17] was 0.48 µg/mL (≈ 0.627 µM).
